Test results taken from patent publication US20100190711A1, “BIG GASTRIN I AS A THERAPEUTIC AGENT” (priority 2007, published 2010).
Where a SMILES comes first, the peptide text is derived from it. [ ]: non-standard residue; d: D form. pGlu = O=C1CC[C@@H](C(=O)O)N1

Test system: drug-resistant Mycobacterium tuberculosis
Conditions: Mycobacterium tuberculosis resistant to PAS, streptomycin and INH; peptide 10 micrograms per ml; seven days

Structure (SMILES): CSCC[C@H](NC(=O)[C@H](Cc1c[nH]c2ccccc12)NC(=O)CNC(=O)[C@H](Cc1ccc(O)cc1)NC(=O)[C@H](C)NC(=O)[C@H](CCC(=O)O)NC(=O)[C@H](CCC(=O)O)NC(=O)[C@H](CCC(=O)O)NC(=O)[C@H](CCC(=O)O)NC(=O)[C@H](CCC(=O)O)NC(=O)[C@H](CC(C)C)NC(=O)[C@H](Cc1c[nH]c2ccccc12)NC(=O)[C@@H]1CCCN1C(=O)CNC(=O)[C@H](CCC(N)=O)NC(=O)[C@H](CCCCN)NC(=O)[C@H](CCCCN)NC(=O)[C@H](CO)NC(=O)[C@@H]1CCCN1C(=O)[C@H](CC(=O)O)NC(=O)[C@H](C)NC(=O)[C@@H](NC(=O)[C@H](CC(C)C)NC(=O)[C@H](Cc1c[nH]cn1)NC(=O)[C@@H]1CCCN1C(=O)[C@@H]1CCCN1C(=O)CNC(=O)[C@H](CCC(N)=O)NC(=O)[C@@H]1CCCN1C(=O)CNC(=O)[C@H](CC(C)C)NC(=O)[C@@H]1CCC(=O)N1)C(C)C)C(=O)N[C@@H](CC(=O)O)C(=O)N[C@@H](Cc1ccccc1)C(N)=O [Big Gastrin I] ([pGlu]LGPQGPPHLVADPSKKQGPWLEEEEEAYGWMDF-NH2)
- % inhibition: 100.0%
